Measurements as given in PMC4605435 (Journal of medicinal chemistry, 2015).
Structures can show the parent of a compound that is named as a salt.

Assays:
[1] = target: ACK1 Tyr284 phosphorylation in LAPC4 cells (Homo sapiens, UniProt Q07912); assay: ACK1 Tyr284 autophosphorylation by immunoblotting in EGF-treated LAPC4 cells; assay type: cell-based; settings: 5 μM, immunoblot (Figure 3a)
LNCaP cells = assay: Cell growth, viable cells by trypan blue exclusion, LNCaP; assay type: cell-based; settings: Homo sapiens, 72 h, read-out: IC50 cell growth LNCaP
[2] = In vitro human plasma stability by HPLC; assay type: in vitro ADME; settings: for stability in human plasma: up to 24 h, HPLC
ALK = ALK (Homo sapiens, UniProt Q9UM73); assay: 33P HotSpot kinase profiling, ALK; assay type: biochemical; settings: ALK vs ACK1
ACK1 [3] = target: T1, ACK1 (Homo sapiens, UniProt Q07912); assay: ELISA-based ACK1 kinase inhibition; assay type: biochemical; settings: for ACK1 inhibition in ELISA: 10 μM; for inhibition at 10 µM: read-out: % Inhibition @ 10 μM (ELISA)
A549 lung cancer cells = settings: at 10 μM; cited from earlier work
ACK1 autophosphorylation = settings: read-out: IC50 inhibition of ACK1 autophosphorylation in intact cells; cited from earlier work
VCaP cells = assay: Cell growth, viable cells by trypan blue exclusion, VCaP; assay type: cell-based; settings: Homo sapiens, 72 h, read-out: IC50 cell growth VCaP
[4] = standards; cited from earlier work
ACK1 [5] = target: T1, ACK1; assay: 33P HotSpot assay; assay type: biochemical; settings: IC50 (33P Hotspot assay)

T1 sequence (Q07912 whole entry): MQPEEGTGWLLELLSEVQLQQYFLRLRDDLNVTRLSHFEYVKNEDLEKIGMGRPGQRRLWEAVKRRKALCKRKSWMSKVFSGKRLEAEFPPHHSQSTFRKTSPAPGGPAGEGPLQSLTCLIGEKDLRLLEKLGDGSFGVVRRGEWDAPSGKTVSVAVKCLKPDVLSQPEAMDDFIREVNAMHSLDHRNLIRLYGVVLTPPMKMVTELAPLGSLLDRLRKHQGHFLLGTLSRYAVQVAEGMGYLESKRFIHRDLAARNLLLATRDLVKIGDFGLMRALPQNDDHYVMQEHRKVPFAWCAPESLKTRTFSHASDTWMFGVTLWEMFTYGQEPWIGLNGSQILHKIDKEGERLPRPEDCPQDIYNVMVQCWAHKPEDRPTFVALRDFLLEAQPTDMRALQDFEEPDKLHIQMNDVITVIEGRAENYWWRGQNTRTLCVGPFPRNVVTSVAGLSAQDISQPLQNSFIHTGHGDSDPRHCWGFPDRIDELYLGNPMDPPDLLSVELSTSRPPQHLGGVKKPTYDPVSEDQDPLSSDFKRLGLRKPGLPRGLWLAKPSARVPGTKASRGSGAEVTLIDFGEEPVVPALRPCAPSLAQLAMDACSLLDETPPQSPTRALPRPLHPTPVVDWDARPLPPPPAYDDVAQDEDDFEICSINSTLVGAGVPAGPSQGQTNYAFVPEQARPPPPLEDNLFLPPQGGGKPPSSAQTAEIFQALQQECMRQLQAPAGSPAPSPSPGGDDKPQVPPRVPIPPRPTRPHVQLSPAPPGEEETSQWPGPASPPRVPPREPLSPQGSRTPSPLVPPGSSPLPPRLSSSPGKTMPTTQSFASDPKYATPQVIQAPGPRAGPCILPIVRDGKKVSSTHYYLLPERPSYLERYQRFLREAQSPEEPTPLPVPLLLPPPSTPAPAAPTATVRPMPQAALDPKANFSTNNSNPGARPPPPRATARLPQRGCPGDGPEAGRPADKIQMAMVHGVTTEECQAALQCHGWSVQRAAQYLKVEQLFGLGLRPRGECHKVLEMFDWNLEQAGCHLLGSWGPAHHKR
ACK1 Tyr284 phosphorylation in LAPC4 cells, sequence (Q07912 whole entry): as above
ALK, sequence (Q9UM73 19-1620): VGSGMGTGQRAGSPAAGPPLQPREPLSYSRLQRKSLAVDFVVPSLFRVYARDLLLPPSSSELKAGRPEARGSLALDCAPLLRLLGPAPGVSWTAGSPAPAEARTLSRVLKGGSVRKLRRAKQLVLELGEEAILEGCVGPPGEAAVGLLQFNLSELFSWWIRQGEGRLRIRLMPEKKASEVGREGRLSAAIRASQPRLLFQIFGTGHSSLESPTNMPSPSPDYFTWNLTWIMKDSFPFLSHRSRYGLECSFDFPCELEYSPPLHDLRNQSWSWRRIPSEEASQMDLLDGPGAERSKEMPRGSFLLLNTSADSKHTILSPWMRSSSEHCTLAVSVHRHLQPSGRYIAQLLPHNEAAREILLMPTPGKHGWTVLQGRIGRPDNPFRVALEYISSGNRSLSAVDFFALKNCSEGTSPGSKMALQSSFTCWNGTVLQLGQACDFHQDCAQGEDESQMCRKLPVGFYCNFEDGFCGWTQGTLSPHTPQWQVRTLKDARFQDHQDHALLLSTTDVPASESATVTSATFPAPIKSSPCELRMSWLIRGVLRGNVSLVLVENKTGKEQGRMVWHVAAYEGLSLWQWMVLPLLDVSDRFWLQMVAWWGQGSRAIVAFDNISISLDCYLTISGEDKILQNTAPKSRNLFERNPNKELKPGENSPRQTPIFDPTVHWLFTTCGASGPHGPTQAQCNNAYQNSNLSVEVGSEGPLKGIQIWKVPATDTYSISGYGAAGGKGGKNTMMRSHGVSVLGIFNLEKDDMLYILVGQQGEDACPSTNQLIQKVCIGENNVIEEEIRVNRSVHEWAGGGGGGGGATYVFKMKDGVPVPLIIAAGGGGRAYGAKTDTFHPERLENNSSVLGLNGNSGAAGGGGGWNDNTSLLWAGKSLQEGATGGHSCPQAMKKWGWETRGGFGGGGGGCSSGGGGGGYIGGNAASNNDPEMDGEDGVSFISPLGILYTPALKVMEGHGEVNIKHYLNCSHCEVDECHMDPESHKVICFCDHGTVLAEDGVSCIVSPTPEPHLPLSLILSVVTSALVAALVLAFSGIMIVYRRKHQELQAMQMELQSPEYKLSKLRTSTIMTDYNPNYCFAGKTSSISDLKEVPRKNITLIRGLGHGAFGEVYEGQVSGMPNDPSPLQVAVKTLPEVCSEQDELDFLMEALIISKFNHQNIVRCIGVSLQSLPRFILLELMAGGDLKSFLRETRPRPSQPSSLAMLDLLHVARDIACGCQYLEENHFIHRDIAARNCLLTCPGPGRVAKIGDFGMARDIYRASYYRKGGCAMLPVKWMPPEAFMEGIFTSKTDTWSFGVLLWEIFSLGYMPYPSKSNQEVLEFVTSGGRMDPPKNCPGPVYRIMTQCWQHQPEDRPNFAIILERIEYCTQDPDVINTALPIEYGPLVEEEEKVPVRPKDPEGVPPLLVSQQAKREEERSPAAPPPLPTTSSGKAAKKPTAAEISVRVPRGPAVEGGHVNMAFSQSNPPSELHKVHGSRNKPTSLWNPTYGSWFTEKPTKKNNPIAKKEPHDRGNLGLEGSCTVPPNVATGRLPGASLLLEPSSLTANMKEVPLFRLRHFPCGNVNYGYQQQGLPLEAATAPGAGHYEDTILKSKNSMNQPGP

Compound: CN1CCN(c2ccc(Nc3ncc(Cl)c(NC[C@@H]4CCCO4)n3)cc2)CC1 [(S)-9b, (S)-5-Chloro-N^2-[4-(4-methylpiperazin-1-yl)phenyl]-N^4-[(tetrahydrofuran-2-yl)methyl]pyrimidine-2,4-diamine]
- ACK1 activation (Tyr284 autophosphorylation) after EGF [1]: almost complete loss of ACK1 activation
- IC50 (LNCaP cells): 1800 nM
- stability in human plasma [2]: stable in human plasma

Compound: CN1CCN(c2ccc(Nc3ncc(Cl)c(NC[C@H]4CCCO4)n3)cc2)CC1 [(R)-9b, (R)-5-Chloro-N^2-[4-(4-methylpiperazin-1-yl)phenyl]-N^4-[(tetrahydrofuran-2-yl)methyl]pyrimidine-2,4-diamine]
- fold difference of ALK IC50 versus ACK1 IC50 (ALK): 3 fold
- ACK1 activation (Tyr284 autophosphorylation) after EGF [1]: almost complete loss of ACK1 activation
- half-life at 250 µM ([2]; human, human plasma): > 6 h
- stability in human plasma [2]: stable in human plasma

Compound: 5-[(2-Chloro-6-fluorophenyl)carbamoyl]-N^2-[(4-methoxyphenyl)amino]-N^4-[(tetrahydrofuran-2-yl)methyl]pyrimidine-2,4-diamine [9q]
- % Inhibition @ 10 μM (ELISA) (ACK1 [3]; compound 10 μM, average of three or more determinations): 68 ± 10%

Compound: Cl.O=C(O)CCc1ccc(Nc2ncc(Cl)c(NCC3CCCO3)n2)cc1 (stereo not shown) [compound 24]
- ACK1 inhibition in ELISA (ACK1 [3]): moderate ACK1 inhibition

Compound: COc1cc(N2CCN(C)CC2)ccc1Nc1ncc2c(n1)N(C)c1ccccc1C(=O)N2 [compound 3]
- A549 lung cancer cell growth (A549 lung cancer cells): inhibits

Compound: COC(C)(C)CCn1nc(Nc2c(C)cccc2C)c2cnc(Nc3ccccc3)nc21 [2a]
- IC50 (ACK1 autophosphorylation): 20 nM

Compound: Oc1ccc(NNc2ncc(F)c(NCC3CCCO3)n2)cc1F (stereo not shown) [9t, 5-Fluoro-N^2-[(4-hydroxy-3-fluorophenyl)amino]-N^4-[(tetrahydrofuran-2-yl)methyl]pyrimidine-2,4-diamine Hydrochloride]
- inhibition at 10 µM (ACK1 [3]): 41 ± 6.3%

Compound: Cl.O=C(O)Cc1ccc(Nc2ncc(Cl)c(NCC3CCCO3)n2)cc1 (stereo not shown) [compound 23]
- ACK1 inhibition in ELISA (ACK1 [3]): moderate ACK1 inhibition

Compound: Cc1cnc(NNc2ccc(O)c(F)c2)nc1NCC1CCCO1 (stereo not shown) [9u, 5-Methyl-N^2-[(4-hydroxy-3-fluorophenyl)amino]-N^4-[(tetrahydrofuran-2-yl)methyl]pyrimidine-2,4-diamine Hydrochloride]
- inhibition at 10 µM (ACK1 [3]): 49 ± 2.8%

Compound: c1ccc(-c2oc3ncnc(NC[C@@H]4CCCO4)c3c2-c2ccccc2)cc1 [1b]
- IC50 (VCaP cells): 4000 nM

Compound: CCN(CC)CCOC(=O)c1ccc(N)cc1 [procaine]
- reported stability in human plasma [4]: unstable

Compound: Cl.O=C(O)CCC(=O)N1CCN(c2ccc(Nc3ncc(Br)c(NCC4CCCO4)n3)cc2)CC1 (stereo not shown) [compound 29]
- ACK1 inhibition in ELISA (ACK1 [3]): significant ACK1 inhibition

Compound: CN(C)CCNC(=O)CCc1ccc(Nc2ncc(Cl)c(NCC3CCCO3)n2)cc1.Cl (stereo not shown) [compound 26]
- ACK1 inhibition in ELISA (ACK1 [3]): moderate ACK1 inhibition

Compound: O=C(O)CCC(=O)N1CCN(c2ccc(Nc3ncc(C(=O)Nc4c(F)cccc4Cl)c(NCC4CCCO4)n3)cc2)CC1 (stereo not shown) [compound 22, 4-(4-{4-[[5-((2-Chloro-6-fluorophenyl)carbamoyl)-4-(((tetrahydrofuran-2-yl)methyl)amino)pyrimidin-2-yl]amino]phenyl}piperazin-1-yl)-4-oxobutanoic Acid]
- inhibition at 10 µM (ACK1 [3]): 89 ± 5.6%
- IC50 (ACK1 [5]): 28 nM

Compound: Cl.O=C(O)CCc1ccc(Nc2ncc(Br)c(NCC3CCCO3)n2)cc1 (stereo not shown) [compound 28]
- ACK1 inhibition in ELISA (ACK1 [3]): moderate ACK1 inhibition

Compound: COc1cc(N2CCC(N3CCN(C)CC3)CC2)ccc1Nc1ncc(Cl)c(Nc2ccccc2S(=O)(=O)C(C)C)n1 [compound 5, reference compound]
- ACK1 activation (Tyr284 autophosphorylation) after EGF [1]: significant reduction in ACK1 activation
